The values that follow come from article PMC11401910, “Dual client binding sites in the ATP-independent chaperone SurA” (Nature Communications, 2024).

“Also recorded” adds a separate entry of the source. Like-named read-outs stand apart in the source and are kept apart here.

Assay [1] deals with T1, SurA-WT (Escherichia coli, UniProt P0ABZ6). In kind it is binding. Details: made in house; host or cells: E. coli BL21(DE3). The procedure:
All NMR experiments were performed on a 950-MHz Bruker Ascend Avance III HD NMR spectrometer equipped with either a Bruker 3 mm TCI or 5 mm TXO triple-resonance cryogenically cooled probe. Peptide binding experiments were performed in 5 mM EDTA, 20 mM Tris-HCl, pH 8.0 with 5 % (v/v) D2O at 25 °C. Binding experiments using full-length OMP sequences also contained 0.8 M urea. Data was acquired for ~16 h with the exception of OMP-containing experiments which were acquired for ~5 h. […] (2D ^1H-^13C SOFAST-HMQC)[70]. […] Errors in the intensity ratios for each peak between two spectra were obtained by propagating the errors according to:1 δR=R*δX/X+δY/Y where δR is the error in the intensity ratio, |R| is the value of the intensity ratio, X and Y are the intensity values for the peak in the first and second spectrum, respectively, and δX and δY are the noise floor values for the first and second spectrum, respectively.
Z-scores for intensity ratio and CSP data were calculated using:3 Zi=xi−μ/σ where xi is the value for a particular peak, and µ and σ are the mean and standard deviation for all peaks, respectively.
For assignment of SurA-WT Ile and Met residues (43 in total) each residue was individually mutated (Supplementary Table 3), and the effect of the mutation assessed by methyl-TROSY NMR. Samples contained 5–70 µM SurA variant. Assignment experiments (2D ^1H-^13C SOFAST-HMQCs) for Ile or Met variants were performed in 20 mM sodium phosphate, 50 mM NaCl, pH 7.5 (at 35 °C), or 20 mM Tris-HCl, pH 8 (at 25 °C), respectively. […] The ^1H chemical shift assignments were referenced using 2,2-dimethyl-2-silapentane-5-sulphonic acid (DSS) at 25 °C as a standard. The ^13C chemical shifts were referenced indirectly to DSS. NMR assignments have been deposited in the Biological Magnetic Resonance Bank (BMRB) with Entry ID 52180.

Assay [2] addresses SurA. To be noted: read-out: Kd, binding of peptide to SurA; cited from earlier work. From the text:
(where Ar is an aromatic residue and X is any amino acid), or aromatic-enriched sequences containing an Ar-X-Ar-X-Pro motif. […] Both of these types of peak changes (shifts and/or broadening), can report on binding or conformational changes caused by binding at the location of the corresponding ^13CH3 probe[73],[74].

Assay [3] deals with T1, SurA-WT. The settings on record: pH 8. The source says:
(1 picture or pasted object on this page, not shown here)
Source data are provided as a Source Data file.

Where [4] appears, read: 5 µM SurA-WT, 200 µM peptide (SVD and WEYIPNV 50 µM), 5 mM EDTA, 20 mM Tris-HCl pH 8, 25 °C.

T1 sequence (P0ABZ6 other isoform, or with tags, fused parts or gaps): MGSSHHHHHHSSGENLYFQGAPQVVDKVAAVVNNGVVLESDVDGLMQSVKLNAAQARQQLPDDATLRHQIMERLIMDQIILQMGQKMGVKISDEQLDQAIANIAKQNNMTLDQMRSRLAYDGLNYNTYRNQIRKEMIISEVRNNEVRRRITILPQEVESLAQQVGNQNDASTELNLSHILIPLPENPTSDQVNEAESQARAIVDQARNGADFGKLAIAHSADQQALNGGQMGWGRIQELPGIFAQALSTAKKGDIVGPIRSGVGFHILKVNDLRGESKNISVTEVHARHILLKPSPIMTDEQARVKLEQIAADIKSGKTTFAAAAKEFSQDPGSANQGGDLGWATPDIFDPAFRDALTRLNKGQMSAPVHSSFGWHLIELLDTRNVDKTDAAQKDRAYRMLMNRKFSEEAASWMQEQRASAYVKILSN

Turning to `CSCC[C@H](NC(=O)[C@H](CCCCN)NC(=O)[C@H](CC(N)=O)NC(=O)[C@H](CCSC)NC(=O)[C@H](CCC(N)=O)NC(C)=O)C(=O)NCC(=O)NCC(=O)N[C@@H](Cc1ccccc1)C(=O)N[C@@H](CC(N)=O)C(=O)N[C@@H](CC(C)C)C(=O)N[C@@H](CCCCN)C(=O)N[C@@H](Cc1ccc(O)cc1)C(=O)N[C@@H](CCCNC(=N)N)C(=O)N[C@@H](Cc1ccc(O)cc1)C(=O)N[C@@H](CCC(=O)O)C(N)=O` [QMN], in assay [1] (setting [4]), the “Interaction of peptide with SurA-WT binding sites (core, P1) by methyl-TROSY NMR, in words” value (“Interaction of peptide” below) was “also affect the peak for M231 in the P1 domain; also recorded: binding results in conformational changes associated with core-P1 opening”.
Same read-out and setting: then Ac-KHDTSDYGFSYGAGL-NH2 [KHD], with “also affect the peak for M231 in the P1 domain”.
Turning to “NLKYRYE [QMN^C-term, C-terminal seven residues of QMN]”, the “Interaction of peptide” value in assay [1] (pH 8) is “demonstrated binding at the core site, but with binding largely abolished at the P1 site”.
Turning to WEYIPNV [reference compound], the Kd (in general, the equilibrium constant for the complex coming apart) in assay [2] is 1 to 14 µM. Further, the “Interaction of peptide” value in assay [1] (pH 8) is given as “severe broadening of the resonance for M231; also recorded: substantial CSPs in the P1 domain”. For the same molecule, in assay [3], the “Affinity of peptide for SurA-WT by ITC (in words)” value was “consistent with literature values”.
